Columns and labels:
[1] = system: human normal lung fibroblast cells; test: Effects on collagen production in human normal lung fibroblast cells (TGF-β1 stimulated, Siricol Collagen Assay Kit); assay type: cell-based; details: compound 1 µM with TGF-β1 5 ng/ml, incubated for 24 hours; salt-soluble collagen; Reference (without compound): 1.1 µg/100,000 cells
Experimental: The suppression action of the compound represented by the formula (II) on the collagen production from the fibroblast cells was confirmed by the following test method. After the human normal lung fibroblast cells were cultured for 48 hours under the condition of confluence (Eagle MEM culture medium with 0.45% FBS), the cells were added(1 µM) the compound represented by the formula (II) and transforming growth factor β1 (TGF-β1) at a concentration of 5 ng/ml, then incubated for 24 hours. The supernatant from the cell culture medium was concentrated by freeze-drying, and the amount of collagen (salt-soluble collagen) was […] assayed using Siricol Collagen Assay Kit (made by Biocolor Co.). The amounts of collagen in the supernatant were as follows: Reference: 1.1 µg/100,000 cells Compound (II): 0.5 µg/100,000 cells It was confirmed that production of collagen by TGF-β1 was suppressed by the compound according to the present invention.

[2] = molecular target: T1, human EP4 receptor subtype (Homo sapiens, UniProt P35408); test: Receptor binding study using PGE2 receptor subtype expression cells (3H-PGE2 displacement, membrane fraction); details: human EP4 receptor transiently expressed in COS-7 cells, membrane fraction 10 µg/tube, 3H-PGE2 5 nM, 30°C for 1 hour; Ki = IC50/(1+[C]/Kd); read-out: DISSOCIATION CONSTANT Ki (nM) EP4
T1 construct: expressed in transfected cells; host or cells: COS-7 cells (transient expression), membrane fraction
T1 sequence (P35408 whole entry): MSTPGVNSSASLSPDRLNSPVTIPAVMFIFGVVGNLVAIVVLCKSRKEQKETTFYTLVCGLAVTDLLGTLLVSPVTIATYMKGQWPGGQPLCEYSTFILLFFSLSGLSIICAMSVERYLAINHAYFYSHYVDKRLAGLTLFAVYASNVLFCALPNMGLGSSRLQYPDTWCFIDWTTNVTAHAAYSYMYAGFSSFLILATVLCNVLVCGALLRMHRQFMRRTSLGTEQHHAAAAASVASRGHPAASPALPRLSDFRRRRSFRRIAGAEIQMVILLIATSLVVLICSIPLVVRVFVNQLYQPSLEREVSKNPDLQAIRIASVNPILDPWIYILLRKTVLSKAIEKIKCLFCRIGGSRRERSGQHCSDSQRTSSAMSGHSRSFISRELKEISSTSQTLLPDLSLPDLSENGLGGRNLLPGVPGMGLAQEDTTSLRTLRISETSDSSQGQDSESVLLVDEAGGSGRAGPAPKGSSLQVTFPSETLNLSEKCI
Experimental: The compound represented by the following formula (II) among the compounds represented by the general formula (I) strongly binds to the EP4 receptor as a subtype of the PGE2 receptor. The binding activity was confirmed in comparison with PGE2 by an experiment using the PGE2 receptor subtype expression cells. [drawing 2]
The experiment was carried out according to the previous report [Breyer, R. M. et al., J. Biol. Chem. 269, 6163-6169 (1994)], wherein the human EP4 receptor subtype was transiently expressed using COS-7 cells. These cells were prepared as membrane samples. The membrane fraction prepared (10 µg/tube) was incubated with reaction solution containing ^3H-PGE2 at 30°C for 1 hour. The reaction was terminated with ice-cold buffer [10mM MES (pH6.0), 10mM MgCl2, 1mM EDTA], and the bound ^3H-PGE2 was trapped on a glass filter (GF/C) by vacuum filtration under a reduced pressure, followed by counting the radioactivity with a liquid scintillator.
The Kd value and Bmax were determined from a Scatchard plot according to the conventional method. The non-specific binding was determined by the amount of binding in the presence of an excess amount (5 µM) on the non-labeled PGE2. Inhibitory action of the ^3H-PGE2 binding by the compound to be tested was determined at a concentration of ^3H-PGE2 of 5 nM by adding various concentrations of the compound to be tested. […]

O=C(O)CCc1cccc2c1O[C@H]1C[C@@H](O)[C@H](/C=C/[C@@H](O)CC3CCCCC3)[C@@H]21 [COMPOUND (II)]
amounts of collagen in the supernatant [1]: 0.5 µg/100,000 cells
Ki [2]: 19 nM

From patent EP1080728A1, “PROSTAGLANDIN EP4 RECEPTOR AGONIST AND TREATMENT METHOD” (TORAY INDUSTRIES, INC., priority 1999, dated 2000)
